Measured values from patent US10588935B2, “FC receptor (FcRn) binding peptides and uses thereof” (THE BRIGHAM AND WOMEN'S HOSPITAL, INC., priority 2013, dated 2020).

Tests used:
FcRn [1] = target: T1, FcRn (Homo sapiens, UniProt P55899); assay: Competition for albumin or IgG binding to FcRn; parameters: Soluble human FcRn was expressed and purified by Biogen-Idec as previously described (29)
From the text: Peptide phage libraries, obtained from Dyax Corp, were screened against biotinylated soluble human FcRn bound to streptavidin beads, using 3 rounds of sequential pH 6.0 binding and pH 7.5 elution/amplification protocols. […] Peptide SYN514 was utilized during a 2nd peptide phage screen to occupy this site on FcRn prior to the addition of the phage libraries, and to identify albumin-competitive sequences. This strategy uncovered the albumin-competitive peptide, SYN571, and through structure-activity relationships, the shorter sequence SYN1753 (Ac-[…]-CONH2 (SEQ ID NO: 1) (disulfide) which bound to shFcRn with equivalent affinity as determined by SPR.

FcRn [2] = target: T1, FcRn; settings: Mezo, PNAS, 2007; cited from earlier work
shFcRn binding to HSA = shFcRn binding to HSA (Homo sapiens, UniProt P55899); assay: SPR screening of FcRn binding peptides for inhibition of shFcRn binding to immobilized HSA; settings: 14 uM peptide, 5 uM shFcRn, pH 6
Description: Unreacted sites were then capped by injecting a solution of ethanolamine over the chip surface. A reference flow cell was activated with EDC/NHS and then blocked with ethanolamine.
Samples were injected over the chip for 3 minutes at 20 uL/min followed by a 2.5 minute dissociation phase.

T1 sequence (P55899 24-297 limits assumed): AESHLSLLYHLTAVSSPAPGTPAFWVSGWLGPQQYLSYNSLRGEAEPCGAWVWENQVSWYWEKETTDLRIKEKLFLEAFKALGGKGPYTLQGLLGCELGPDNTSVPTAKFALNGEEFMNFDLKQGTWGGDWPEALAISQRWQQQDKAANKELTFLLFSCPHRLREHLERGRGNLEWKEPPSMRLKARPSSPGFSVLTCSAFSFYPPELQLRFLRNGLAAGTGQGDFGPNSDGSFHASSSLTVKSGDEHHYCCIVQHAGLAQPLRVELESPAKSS
T1 sequence (P61769 21-119 partner): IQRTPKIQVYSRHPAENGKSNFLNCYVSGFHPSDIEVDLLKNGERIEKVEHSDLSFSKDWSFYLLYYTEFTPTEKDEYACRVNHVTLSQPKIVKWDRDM
Sequence of shFcRn binding to HSA (P55899 24-297 limits assumed): as the sequence (P55899 24-297 limits assumed) above
Sequence of shFcRn binding to HSA (P61769 21-119 partner): as the sequence (P61769 21-119 partner) above

CC(=O)N[C@@H](CCCNC(=N)N)C(=O)N[C@@H](Cc1ccccc1)C(=O)N[C@@H]1C(=O)N[C@@H]([C@@H](C)O)C(=O)NCC(=O)N[C@@H](Cc2c[nH]cn2)C(=O)N[C@@H](Cc2ccccc2)C(=O)NCC(=O)N(C)CC(=O)N(C)[C@@H](CC(C)C)C(=O)N[C@@H](Cc2ccc(O)cc2)C(=O)N2CCC[C@H]2C(=O)N[C@H](C(N)=O)CSSC1(C)C [SYN1327, Ac-RF-Pen-TGHFG-Sar-NMeLeu-YPC-CONH2, reference compound]
Competition for albumin or IgG binding to FcRn (FcRn [1]; Table 3): IgG | competition with IgG or albumin for the FcRn binding site (FcRn [1]; competition experiments / SPR): competes for binding of IgG | block of IgG binding to hFcRn (FcRn [2]): block the binding of IgG to hFcRn | block of shFcRn binding to immobilized HSA (shFcRn binding to HSA): not able to compete for HSA binding
